Assay results: ChEMBL document CHEMBL5214952, “Unique iminotetrahydroberberine-corbelled metronidazoles as potential membrane active broad-spectrum antibacterial agents” (Bioorg Med Chem Lett, 2022)
≈ marks a conversion by molar mass, not a printed value. Calls of active or inactive are those of the source. No cut-off for these calls is given here.

Assays:
Cell membrane [1] = assay: Disruption of membrane integrity in Pseudomonas aeruginosa assessed as increase in nucleic acid leakage by measuring fold reduction in optical density at 8 times MIC by absorption spectrometry analysis
[2] = Cytotoxicity against human HepG2 cells assessed as reduction in cell viability; format: toxicity, cell-based
Pseudomonas aeruginosa [3] = assay: Induction of […] membrane potential depolarization in Pseudomonas aeruginosa assessed as fold increase in fluorescence intensity at 8 times MIC by DiSC35 dye based fluorescence assay; format: functional
Acinetobacter baumannii = assay: Antibacterial activity against Acinetobacter baumannii assessed as inhibition of bacterial growth by CLSI based continuous dilution method; format: functional
Staphylococcus aureus [4] = assay: Antibacterial activity against Staphylococcus aureus ATCC 25923 assessed as inhibition of bacterial growth by CLSI based continuous dilution method; format: functional
Pseudomonas aeruginosa [5] = assay: Potency index, ratio of Metronidazole MIC to test compound MIC for antibacterial activity against Pseudomonas aeruginosa assessed as inhibition of bacterial growth by CLSI based continuous dilution method; format: functional
Pseudomonas aeruginosa [6] = assay: Antibacterial activity against Pseudomonas aeruginosa assessed as inhibition of bacterial growth by CLSI based continuous dilution method; format: functional
Cell membrane [7] = assay: Induction of outer membrane permeabilization in Pseudomonas aeruginosa assessed as increase in NPN uptake by measuring increase in fluorescence intensity at 0.5 to 8 times MIC by NPN-dye based fluorescence analysis; details: DDE = dose-dependent effect
Cell membrane [8] = assay: Induction of cell membrane permeabilization in Pseudomonas aeruginosa assessed as increase in number of cells with damaged membranes by measuring increase in red fluorescence at 1 times MIC measured for 10 mins by PI staining based fluorescence analysis
Staphylococcus aureus [9] = assay: Antibacterial activity against Staphylococcus aureus ATCC 29213 assessed as inhibition of bacterial growth by CLSI based continuous dilution method; format: functional
Klebsiella pneumoniae = assay: Antibacterial activity against Klebsiella pneumoniae assessed as inhibition of bacterial growth by CLSI based continuous dilution method; format: functional
Pseudomonas aeruginosa [10] = assay: Antibacterial activity against Pseudomonas aeruginosa ATCC 27853 assessed as inhibition of bacterial growth by CLSI based continuous dilution method; format: functional
Cell membrane [11] = assay: Disruption of membrane integrity in Pseudomonas aeruginosa assessed as reduction in intact bacterial cells by measuring reduction in fluorescence intensity at 0.5 to 8 times MIC by calcein-AM dye based assay
Pseudomonas aeruginosa [12] = assay: Antibiofilm activity against Pseudomonas aeruginosa assessed as reduction in biofilm viability at 8 times MIC by crystal violet staining based assay relative to control; format: functional
Cell membrane [13] = assay: Disruption of membrane integrity in Pseudomonas aeruginosa assessed as increase in protein leakage by measuring reduction in fluorescence intensity at 0.5 to 8 times MIC incubated for 6 hrs by bradford assay
Cell membrane [14] = assay: Induction of inner membrane permeabilization in Pseudomonas aeruginosa assessed as increase in PI uptake by measuring increase in fluorescence intensity at 0.5 to 8 times MIC by propidium iodide staining based fluorescence analysis; details: DDE = dose-dependent effect
Escherichia coli [15] = assay: Antibacterial activity against Escherichia coli ATCC 25922 assessed as inhibition of bacterial growth by CLSI based continuous dilution method; format: functional
Pseudomonas aeruginosa [16] = assay: Potency index, ratio of Berberine MIC to test compound MIC for antibacterial activity against Pseudomonas aeruginosa assessed as inhibition of bacterial growth by CLSI based continuous dilution method; format: functional
Pseudomonas aeruginosa [17] = assay: Antibiofilm activity against Pseudomonas aeruginosa assessed as reduction in biofilm viability at 0.5 to 8 times MIC by crystal violet staining based assay; format: functional, organism-based; details: DDE = dose-dependent effect
Pseudomonas aeruginosa [18] = assay: Potency index, ratio of norfloxacin MIC to test compound MIC for antibacterial activity against Pseudomonas aeruginosa assessed as inhibition of bacterial growth by CLSI based continuous dilution method; format: functional
Escherichia coli [19] = assay: Antibacterial activity against Escherichia coli assessed as inhibition of bacterial growth by CLSI based continuous dilution method; format: functional
[20] = Cytotoxicity against human HepG2 cells assessed as cell viability at 1 times MIC relative to control; format: toxicity, cell-based; details: read-out: Activity
Staphylococcus aureus [21] = assay: Antibacterial activity against Staphylococcus aureus assessed as inhibition of bacterial growth by CLSI based continuous dilution method; format: functional
Staphylococcus aureus [22] = assay: Antibacterial activity against methicillin-resistant Staphylococcus aureus assessed as inhibition of bacterial growth by CLSI based continuous dilution method; format: functional
Enterococcus faecalis = assay: Antibacterial activity against Enterococcus faecalis assessed as inhibition of bacterial growth by CLSI based continuous dilution method; format: functional
Aspergillus fumigatus = assay: Antifungal activity against Aspergillus fumigatus assessed as inhibition of fungal growth by CLSI based continuous dilution method; format: functional, organism-based

COc1cc(/C=N/OCc2ccccc2)c2c(c1OCC(O)Cn1c([N+](=O)[O-])cnc1C)CN1CCc3cc4c(cc3C1C2)OCO4 (stereo unspecified)
fold change (FC) (Cell membrane [1]): 0.1 | IC50 [2]: > 50 µM | fold change (FC) (Pseudomonas aeruginosa [3]): 4 | MIC (Acinetobacter baumannii): 24 µM (≈ 15.4 µg/mL) | MIC (Staphylococcus aureus [4]): 24 µM (≈ 15.4 µg/mL) | Ratio (Pseudomonas aeruginosa [5]): 62 | MIC (Pseudomonas aeruginosa [6]): 24 µM (≈ 15.4 µg/mL) | Activity (Cell membrane [7]): Dde | Activity (Cell membrane [8]): Active | MIC (Staphylococcus aureus [9]): 49 µM (≈ 31.4 µg/mL) | MIC (Klebsiella pneumoniae): 24 µM (≈ 15.4 µg/mL) | MIC (Pseudomonas aeruginosa [10]): 199 µM (≈ 128 µg/mL) | Activity (Cell membrane [11]): Active | Activity (Pseudomonas aeruginosa [12]): 46.4% | Activity (Cell membrane [13]): Active | Activity (Cell membrane [14]): Dde | MIC (Escherichia coli [15]): 99 µM (≈ 63.5 µg/mL) | Ratio (Pseudomonas aeruginosa [16]): 63 | Activity (Pseudomonas aeruginosa [17]): Dde | Ratio (Pseudomonas aeruginosa [18]): 2 | MIC (Escherichia coli [19]): 24 µM (≈ 15.4 µg/mL) | viability at 1 times MIC [20]: > 80% | MIC (Staphylococcus aureus [21]): 49 µM (≈ 31.4 µg/mL) | MIC (Staphylococcus aureus [22]): 49 µM (≈ 31.4 µg/mL) | MIC (Enterococcus faecalis): 49 µM (≈ 31.4 µg/mL) | Activity (Aspergillus fumigatus): Active
